Results on six molecules are retold here after article PMC6479757, “Coralmycin Derivatives with Potent Anti-Gram Negative Activity Produced by the Myxobacteria Corallococcus coralloides M23” (Molecules, 2019).

The subject of test [1] is Staphylococcus aureus RN 4220. Briefly: Antibacterial susceptibility, broth microdilution MIC. The conditions noted are these: RN4220, 24 h. The class given is cell-based. The method, then:
(§1) Whole-cell antimicrobial activities were determined using a broth microdilution method described previously. Most of the test strains were grown to mid-log phase in Mueller–Hinton broth and diluted 1,000-fold in the same medium. Cells (10^5/mL) were dispensed at 0.2 mL/well in 96-well microtiter plates. Streptococcus pneumonia and Acinetobacter baumanii were grown in Todd–Hewitt medium and nutrient broth, respectively. […] Cells were treated with 0.05% DMSO as a vehicle control. The MICs were determined in triplicate by serial two-fold dilutions of the test compounds. […] Bacterial growth was determined by measuring the absorption at 650 nm using a microtiter enzyme-linked immunosorbent assay (ELISA) reader (Molecular Devices Corporation, Sunnyvale, CA, USA).

For a further test, the target named is T1, E. coli DNA gyrase (Escherichia coli, UniProt P0AES4+P0AES6).
T1 construct: purchased TopoGEN TG2001G
Nature of the test: DNA gyrase supercoiling assay. The class given is biochemical. The conditions noted are these: relaxed plasmid, 37 °C for 30 min, agarose gel band densities; read-out: IC50, inhibition of the supercoiling activity of E. coli DNA gyrase. The method, then:
The inhibitory activities of coralmycins on the supercoiling activity of DNA gyrase were investigated using a ‘Purified E. coli DNA Gyrase Drug Screening Kit’ (TopoGEN #TG2001G, Buena Vista, CO, USA). […] The reaction was terminated by the addition of 2 μL of 10% (w/v) SDS and 2 μL of 10× DNA gel loading dye (bromophenol blue). Then, 20 μL of chloroform:isoamyl alcohol (24:1 mixture) was added, and the mixture was vortexed and then centrifuged. The samples in the blue phase were run on 1% (w/v) agarose gel and were visualized using ethidium bromide. All reactions were performed in triplicate. To calculate the IC50 values, the band densities were measured using ImageJ (National Institutes of Health, Bethesda, Maryland, MD, USA).

For test [2], the system named is Pseudomonas aeruginosa KCTC 2004. Nature of the test: Antibacterial susceptibility, broth microdilution MIC. Type of test: cell-based. The note with it: KCTC2004; Pseudomonas aeruginosa KCTC 2004; 24-h incubation at 37 °C. How it is done:
(§2) Whole-cell antimicrobial activities were determined using a broth microdilution method described previously. Most of the test strains were grown to mid-log phase in Mueller–Hinton broth and diluted 1,000-fold in the same medium. Cells (10^5/mL) were dispensed at 0.2 mL/well in 96-well microtiter plates. Streptococcus pneumonia and Acinetobacter baumanii were grown in Todd–Hewitt medium and nutrient broth, respectively. […]. Cells were treated with 0.05% DMSO as a vehicle control. The MICs were determined in triplicate by serial two-fold dilutions of the test compounds. […] Bacterial growth was determined by measuring the absorption at 650 nm using a microtiter enzyme-linked immunosorbent assay (ELISA) reader (Molecular Devices Corporation, Sunnyvale, CA, USA).
(In general: Broth dilution looks for growth in wells or tubes with falling amounts of substance.)

Another test relates to MRSA CCARM 3506. The description is as above. Type of test: cell-based. The conditions noted are these: Staphylococcus aureus, 24-h incubation at 37 °C. The method, then:
as §2

The test system of the next test is MRSA CCARM 3167. The test is described as above. The conditions noted are these: Staphylococcus aureus, 24-h incubation at 37 °C. The class given is cell-based. How it is done:
as §2

Test [3] deals with Enterococcus faecalis KCTC 5191. Described as above. The class given is cell-based. The note with it: KCTC5191, 24-h incubation at 37 °C. The method, then: as §2
Another test relates to QRSA CCARM 3505. The description is as above. The class given is cell-based. The note with it: Staphylococcus aureus, CCARM3505; QRSA CCARM 3505; 24-h incubation at 37 °C; read-out: MIC. How it is done:
as §2

The test system of another test is E. coli CCARM 1356. The description is as above. Type of test: cell-based. The note with it: Escherichia coli, CCARM1356, 24-h incubation at 37 °C. The method, then: as §2
The subject of the next test is E. coli KCTC 1682. The test is described as above. The note with it: Escherichia coli. Type of test: cell-based. How it is done:
as §2

Test [4] deals with Klebsiella pneumoniae KCTC 22057. The description is as above. The class given is cell-based. The note with it: KCTC22057; Klebsiella pneumoniae KCTC 22057; 24-h incubation at 37 °C. The method, then:
as §2

For test [5], the system named is Acinetobacter baumannii KCTC 2508. The description is as above. The conditions noted are these: KCTC2508, nutrient broth, 24-h incubation at 37 °C. Type of test: cell-based. How it is done:
as §2

The next test relates to QRSA CCARM 3519. Described as above. Type of test: cell-based. The note with it: Staphylococcus aureus, CCARM3519; QRSA CCARM 3519; 24-h incubation at 37 °C; read-out: MIC. How it is done:
as §2

Test [6] has as its system Streptococcus pneumonia KCTC 5412. Described as above. The conditions noted are these: Streptococcus pneumoniae, KCTC5412, Todd–Hewitt medium, 24-h incubation at 37 °C. Type of test: cell-based. The method, then:
as §2

In another test the test system is Gram-negative bacteria. Briefly: Antibacterial activity against Gram-negative bacteria. Type of test: cell-based. The note with it: at 32 μg/mL. How it is done: as §1
The test system of another test is tested bacterial strains. Nature of the test: Antibacterial activity against all tested strains. The class given is cell-based. The conditions noted are these: at 32 μg/mL. The method, then:
as §1

A further test deals with DNA gyrase. The note with it: read-out: IC50, DNA gyrase-inhibitory activity; cited from earlier work.
Test [7] concerns Gram-negative and Gram-positive bacteria. The conditions noted are these: cited from earlier work.
In test [8] the test system is Gram-negative pathogens as well as Gram-positive bacteria. On the set-up: method as in PMID 27598688. The conditions noted are these: compared with 11; cited from earlier work.
For a further test, the system named is Gram-negative pathogens. The conditions noted are these: compared with 12; cited from earlier work.
[9] abbreviates: KCTC1682, 24-h incubation at 37 °C, Table 6 and Table S1, read-out: MIC.
The mark [10] stands for this setting: KCTC1682, Table 7, read-out: MIC, antibacterial activity on E. coli KCTC 1682.

pIC50: −log10 of the molar value. ≈ marks a conversion by molar mass, not a printed value. Read-outs that look alike come from different tables or passages of the source.

T1 sequence (P0AES4 whole entry, one chain of several): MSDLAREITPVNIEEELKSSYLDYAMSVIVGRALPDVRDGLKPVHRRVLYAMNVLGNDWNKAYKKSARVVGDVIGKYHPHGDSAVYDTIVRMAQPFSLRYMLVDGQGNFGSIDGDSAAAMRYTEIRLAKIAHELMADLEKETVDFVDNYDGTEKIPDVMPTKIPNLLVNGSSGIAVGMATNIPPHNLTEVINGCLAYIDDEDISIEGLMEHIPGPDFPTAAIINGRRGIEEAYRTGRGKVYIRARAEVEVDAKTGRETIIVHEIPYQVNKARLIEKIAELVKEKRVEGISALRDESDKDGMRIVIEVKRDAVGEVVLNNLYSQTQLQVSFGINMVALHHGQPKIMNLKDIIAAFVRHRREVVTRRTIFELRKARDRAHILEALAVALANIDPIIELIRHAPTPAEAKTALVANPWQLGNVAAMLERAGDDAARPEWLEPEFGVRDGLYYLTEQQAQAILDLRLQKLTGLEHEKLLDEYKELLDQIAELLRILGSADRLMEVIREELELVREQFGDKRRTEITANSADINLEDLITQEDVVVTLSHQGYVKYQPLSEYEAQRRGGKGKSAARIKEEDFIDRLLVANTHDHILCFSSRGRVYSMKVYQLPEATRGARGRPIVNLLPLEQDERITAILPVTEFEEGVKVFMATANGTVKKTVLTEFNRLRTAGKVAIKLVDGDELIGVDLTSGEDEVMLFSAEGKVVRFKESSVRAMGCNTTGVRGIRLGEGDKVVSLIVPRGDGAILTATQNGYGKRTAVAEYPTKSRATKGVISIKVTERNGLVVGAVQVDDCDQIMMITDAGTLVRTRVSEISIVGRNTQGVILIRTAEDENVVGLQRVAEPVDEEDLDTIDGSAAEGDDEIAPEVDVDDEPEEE

As usually defined, the MIC is the smallest concentration in the dilution series that meets the test's criterion for growth inhibition. By pIC50 is commonly meant −log10 of the IC50, conventionally taken in molar units. On to `CO[C@@H](C(=O)O)[C@H](NC(=O)c1ccc(NC(=O)c2ccc([N+](=O)[O-])cc2)cc1)C(=O)Nc1ccc(C(=O)Nc2ccc(C(=O)Nc3ccc(C(=O)O)cc3OC(C)C)c(O)c2OC(C)C)cc1` [Compound 1, Coralmycin C], for which the MIC in [1] was 4 µg/mL (≈ 4.34 µM); in test [2] it was over 32 µg/mL; against MRSA CCARM 3506, 4 µg/mL (≈ 4.34 µM); in the test on MRSA CCARM 3167, 4 µg/mL (≈ 4.34 µM); in [3], 8 µg/mL (≈ 8.69 µM); with QRSA CCARM 3505, 4 µg/mL (≈ 4.34 µM). The MIC against E. coli CCARM 1356 was over 32 µg/mL; in the test with E. coli KCTC 1682 (setting [9]), over 32 µg/mL; in the test with E. coli KCTC 1682 (setting [10]), over 32 µg/mL; in [4] it was over 32 µg/mL; in test [5] it was over 32 µg/mL; with QRSA CCARM 3519 it was 4 µg/mL (≈ 4.34 µM). The same molecule gave an MIC in test [6] of 4 µg/mL (≈ 4.34 µM). At E. coli DNA gyrase, the pIC50 is 6.38. For the same molecule, in the test with Gram-negative bacteria, the “antibacterial activity against Gram-negative bacteria” value is listed as “no antibacterial activity”.

With `CO[C@@H](C(N)=O)[C@H](NC(=O)c1ccc(N)cc1)C(=O)Nc1ccc(C(=O)Nc2ccc(C(=O)Nc3ccc(C(=O)O)cc3OC(C)C)c(O)c2OC(C)C)cc1` [Compound 3, Coralmycin E], the minimum inhibitory concentration (MIC) (in test [1]; in test [2]; against MRSA CCARM 3506; with MRSA CCARM 3167; in [3]; in the test with QRSA CCARM 3505) was over 32 µg/mL each time. Besides, the minimum inhibitory concentration (MIC) (in the test with E. coli CCARM 1356; with E. coli KCTC 1682 (setting [9]); in the test with E. coli KCTC 1682 (setting [10]); in [4]; in test [5]; in the test with QRSA CCARM 3519) was over 32 µg/mL each time. In test [6], this molecule registered an MIC of over 32 µg/mL. Besides, in the test with tested bacterial strains, the “antibacterial activities against any of the tested bacterial strains” value was “no antibacterial activities”. Also, the negative logarithm of the IC50 (pIC50) on E. coli DNA gyrase was 4.41.

As to `CC(C)Oc1cc(C(=O)O)ccc1NC(=O)c1ccc(NC(=O)c2ccc(N)cc2)c(OC(C)C)c1O` [Compound 10, cystobactamid 507], the MIC (in [1]; in test [2]; with MRSA CCARM 3506; with MRSA CCARM 3167; in test [3]; in the test on QRSA CCARM 3505) was over 32 µg/mL each time. The MIC (with E. coli CCARM 1356; with E. coli KCTC 1682 (setting [9]); in the test on E. coli KCTC 1682 (setting [10]); in test [4]; in test [5]; with QRSA CCARM 3519) was over 32 µg/mL each time. Also, the MIC in test [6] is over 32 µg/mL. Besides, the figures for the pIC50 at DNA gyrase and on E. coli DNA gyrase were 4.69 and under 3.52, respectively. The antibacterial activity result in test [7] (in words) is recorded as “weak antibacterial activity”. Also, the “MICs against Gram-negative and Gram-positive bacteria” value in test [7] (reported range) was 4 to 65 µg/mL.

`CO[C@@H](C(N)=O)[C@H](NC(=O)c1ccc(NC(=O)c2ccc([N+](=O)[O-])cc2)cc1)C(=O)Nc1ccc(C(=O)Nc2ccc(C(=O)Nc3ccc(C(=O)O)cc3OC(C)C)c(O)c2OC(C)C)cc1` [Compound 11, cystobactamid 919-2, reference compound]: the MIC in test [1] is 0.125 µg/mL (≈ 0.136 µM); in test [2], 4 µg/mL (≈ 4.35 µM); in the test on MRSA CCARM 3506 it was 0.25 µg/mL (≈ 0.272 µM); with MRSA CCARM 3167, 0.25 µg/mL (≈ 0.272 µM); in [3] it was 0.25 µg/mL (≈ 0.272 µM); in the test with QRSA CCARM 3505, 1 µg/mL (≈ 1.09 µM). In addition, the MIC against E. coli CCARM 1356 turned out to be 2 µg/mL (≈ 2.17 µM); in the test with E. coli KCTC 1682 (setting [9]), 1 µg/mL (≈ 1.09 µM); with E. coli KCTC 1682 (setting [10]), 1 µg/mL (≈ 1.09 µM); in test [4], 4 µg/mL (≈ 4.35 µM); in test [5], 2 µg/mL (≈ 2.17 µM); in the test with QRSA CCARM 3519 it was 1 µg/mL (≈ 1.09 µM). Also, in test [6], the MIC came to 1 µg/mL (≈ 1.09 µM). In addition, the pIC50 at E. coli DNA gyrase was 6.02.

As to `CO[C@@H](C(N)=O)[C@H](NC(=O)c1ccc(NC(=O)c2ccc([N+](=O)[O-])cc2)cc1)C(=O)Nc1ccc(C(=O)Nc2ccc(C(=O)Nc3ccc(C(=O)O)c(O)c3OC(C)C)c(O)c2OC(C)C)cc1` [Compound 12, coralmycin A, reference compound], the MIC in [1] was 0.015 µg/mL (≈ 0.016 µM); in [2], 4 µg/mL (≈ 4.27 µM); against MRSA CCARM 3506, 0.015 µg/mL (≈ 0.016 µM); with MRSA CCARM 3167, 0.015 µg/mL (≈ 0.016 µM); in test [3], 0.03 µg/mL (≈ 0.0321 µM); with QRSA CCARM 3505, 0.125 µg/mL (≈ 0.134 µM). Moreover, the minimal inhibitory concentration (MIC) with E. coli CCARM 1356 amounted to 0.125 µg/mL (≈ 0.134 µM); in the test on E. coli KCTC 1682 (setting [9]) it was 0.125 µg/mL (≈ 0.134 µM); in the test on E. coli KCTC 1682 (KCTC1682, 24 h, Table 7, read-out: MIC, antibacterial activity on E. coli KCTC 1682), 0.25 µg/mL (≈ 0.267 µM); in [4] it was 2 µg/mL (≈ 2.14 µM); in test [5], 0.125 µg/mL (≈ 0.134 µM); in the test on QRSA CCARM 3519, 0.25 µg/mL (≈ 0.267 µM). The same molecule showed an MIC in test [6] of 0.25 µg/mL (≈ 0.267 µM). Also, at E. coli DNA gyrase, the negative-log IC50 (pIC50) is 7.10. For the same molecule, in [8], the “antibacterial activity relative to 11 (times higher)” value is on record as 10 times.

Regarding `CO[C@@H](C(N)=O)[C@H](NC(=O)c1ccc(NC(=O)c2ccc([N+](=O)[O-])cc2)cc1)C(=O)Nc1ccc(C(=O)Nc2ccc(C(=O)Nc3ccc(C(=O)O)cc3)c(O)c2OC(C)C)cc1` [cystobactamid 861-2], the “antibacterial activity against Gram-negative pathogens relative to 12 (times higher)” value in the test on Gram-negative pathogens is reported as 4–10 times.
